# According to patent publication US11970493B2, “Autotaxin inhibitor compounds” (ILDONG PHARMACEUTICAL CO., LTD., priority 2020, dated 2024):
# Where a name gives a salt, the structure may show the parent alone.
# Target: hATX/ENPP2 (Homo sapiens, UniProt Q13822)
# Experiment: hATX/ENPP2 biochemical assay using 16:0-LPC as substrate (Amplex Red/choline oxidase/HRP fluorescence)
# Details: hENPP2 2.5 nM, LPC (16:0) substrate
# Summary of the method: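 Enzyme preincubated with compounds 15 min at room temperature in 50 mM Tris-HCl pH 8.0, 140 mM NaCl, 5 mM CaCl2, 0.01% Triton X-100. Reaction started with 80 μM LPC (16:0) stock plus Amplex Red/choline oxidase/HRP mix; fluorescence (ex 530/em 590 nm) read kinetically. IC50 from slope between 60 and 70 min.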
row,Structure (SMILES),IC50 [nM]
1,"CCc1nc2ccc(-c3cnc(N4CCC(NC(=O)[C@@H]5C[C@@H](O)CN5)CC4)nc3)cn2c1N(C)c1nc(-c2ccc(F)cc2)c(C#N)s1 [Compound 77, (2S,4R)—N-(1-(5-(3-((5-cyano-4-(4-fluorophenyl)thiazol-2-yl)(methyl)amino)-2-ethylimidazo[1,2-a]pyridin-6-yl)pyrimidin-2-yl)piperidin-4-yl)-4-hydroxypyrrolidine-2-carboxamide]",≤ 20
2,"CCc1nc2ccc(-c3cnc(N4CCN(C(=O)[C@@H]5C[C@@H](O)CN5C)CC4)nc3)cn2c1N(C)c1nc(-c2ccc(F)cc2)c(C#N)s1 [Compound 78, 2-((2-ethyl-6-(2-(4-((2S,4R)-4-hydroxy-1-methylpyrrolidine-2-carbonyl)piperazin-1-yl)pyrimidin-5-yl)imidazo [1,2-a]pyridin-3-yl)(methyl)amino)-4-(4-fluorophenyl)thiazole-5-carbonitrile]",≤ 20
3,"CCc1nc2ccc(-c3cnc(N4CCN(C(=O)NC5CN(C)C5)CC4)nc3)cn2c1N(C)c1nc(-c2ccc(F)cc2)c(C#N)s1 [Compound 82 hydrochloride, 4-(5-(3-((5-cyano-4-(4-fluorophenyl)thiazol-2-yl)(methyl)amino)-2-ethylimidazo[1,2-a]pyridin-6-yl)pyrimidin-2-yl)-N-(1-methylazetidin-3-yl)piperazine-1-carboxamide hydrochloride]",≤ 20
4,"CCc1nc2ccc(-c3cnc(N4CCC(NC(=O)C5CNC5)CC4)nc3)cn2c1N(C)c1nc(-c2ccc(F)cc2)c(C#N)s1 [Compound 83 hydrochloride, N-(1-(5-(3-((5-cyano-4-(4-fluorophenyl)thiazol-2-yl)(methyl)amino)-2-ethylimidazo[1,2-a]pyridin-6-yl)pyrimidin-2-yl)piperidin-4-yl)azetidine-3-carboxamide hydrochloride]",≤ 20
5,"CCc1nc2ccc(-c3cnc(N4CCC(NC(=O)C5CCNCC5)CC4)nc3)cn2c1N(C)c1nc(-c2ccc(F)cc2)c(C#N)s1 [Compound 84, N-(1-(5-(3-((5-cyano-4-(4-fluorophenyl)thiazol-2-yl)(methyl)amino)-2-ethylimidazo[1,2-a]pyridin-6-yl)pyrimidin-2-yl)piperidin-4-yl)piperidine-4-carboxamide]",≤ 20
6,"CCc1nc2ccc(-c3ccc(N4CCN(C(=O)C5CN(C)C5)CC4)nc3)cn2c1N(C)c1nc(-c2ccc(F)cc2)c(C#N)s1 [Compound 86, 2-((2-ethyl-6-(6-(4-(1-methylazetidine-3-carbonyl)piperazin-1-yl)pyridin-3-yl)imidazo[1,2-a]pyridin-3-yl)(methyl)amino)-4-(4-fluorophenyl)thiazole-5-carbonitrile]",20 to 200
7,"CCc1nc2ccc(-c3ccc(N4CCC(NC5(CO)CC5)CC4)nc3)cn2c1N(C)c1nc(-c2ccc(F)cc2)c(C#N)s1 [Compound 88, 2-((2-ethyl-6-(6-(4-((1-(hydroxymethyl)cyclopropyl)amino)piperidin-1-yl)pyridin-3-yl)imidazo[1,2-a]pyridin-3-yl)(methyl)amino)-4-(4-fluorophenyl)thiazole-5-carbonitrile]",≤ 20
8,"CCc1nc2ccc(-c3ccc(N4CCC(NC5CNC5)CC4)nc3)cn2c1N(C)c1nc(-c2ccc(F)cc2)c(C#N)s1 [Compound 89 hydrochloride, 2-((6-(6-(4-(azetidin-3-ylamino)piperidin-1-yl)pyridin-3-yl)-2-ethylimidazo[1,2-a]pyridin-3-yl)(methyl)amino)-4-(4-fluorophenyl)thiazole-5-carbonitrile hydrochloride]",≤ 20
9,"CCc1nc2ccc(-c3ccc(N4CCC(NC5CCNCC5)CC4)nc3)cn2c1N(C)c1nc(-c2ccc(F)cc2)c(C#N)s1 [Compound 90, 2-((2-ethyl-6-(6-(4-(piperidin-4-ylamino)piperidin-1-yl)pyridin-3-yl)imidazo[1,2-a]pyridin-3-yl)(methyl)amino)-4-(4-fluorophenyl)thiazole-5-carbonitrile]",≤ 20
10,"CCc1nc2ccc(-c3ccc(N4CCN(CC(=O)N5CC[C@H](O)C5)CC4)nc3)cn2c1N(C)c1nc(-c2ccc(F)cc2)c(C#N)s1 [Compound 91, (S)-2-((2-ethyl-6-(6-(4-(2-(3-hydroxypyrrolidin-1-yl)-2-oxoethyl)piperazin-1-yl)pyridin-3-yl)imidazo[1,2-a]pyridin-3-yl)(methyl)amino)-4-(4-fluorophenyl) thiazole-5-carbonitrile]",≤ 20
11,"CCc1nc2ccc(-c3ccc(N4CCN(C(=O)NC5CCNCC5)CC4)nc3)cn2c1N(C)c1nc(-c2ccc(F)cc2)c(C#N)s1 [Compound 94, 4-(5-(3-((5-cyano-4-(4-fluorophenyl)thiazol-2-yl)(methyl)amino)-2-ethylimidazo[1,2-a]pyridin-6-yl)pyridin-2-yl)-N-(piperidin-4-yl)piperazine-1-carboxamide]",20 to 200
12,"CCc1nc2ccc(-c3ccc(N4CCN(C(=O)[C@@H]5C[C@@H](O)CN5)CC4)nc3)cn2c1N(C)c1nc(-c2ccc(F)cc2)c(C#N)s1 [Compound 95, 2-((2-ethyl-6-(6-(4-((2S,4R)-4-hydroxypyrrolidine-2-carbonyl)piperazin-1-yl)pyridin-3-yl)imidazo[1,2-a]pyridin-3-yl)(methyl)amino)-4-(4-fluorophenyl)thiazole-5-carbonitrile]",≤ 20
13,"CCc1nc2ccc(-c3ccc(N4CCN(C(=O)NC5CNC5)CC4)nc3)cn2c1N(C)c1nc(-c2ccc(F)cc2)c(C#N)s1 [Compound 96 hydrochloride, N-(azetidin-3-yl)-4-(5-(3-((5-cyano-4-(4-fluorophenyl)thiazol-2-yl)(methyl)amino)-2-ethylimidazo[1,2-a]pyridin-6-yl)pyridin-2-yl) piperazine-1-carboxamide hydrochloride]",20 to 200
14,"CCc1nc2ccc(-c3ccc(N4CC(C(=O)NC5(CO)CC5)C4)nc3)cn2c1N(C)c1nc(-c2ccc(F)cc2)c(C#N)s1 [Compound 97, 1-(5-(3-((5-cyano-4-(4-fluorophenyl)thiazol-2-yl)(methyl)amino)-2-ethylimidazo[1,2-a]pyridin-6-yl)pyridin-2-yl)-N-(1-(hydroxymethyl)cyclopropyl)azetidine-3-carboxamide]",20 to 200
15,"CCc1nc2ccc(-c3ccc(N4CCC(NC(=O)C5(O)CC5)CC4)nc3)cn2c1N(C)c1nc(-c2ccc(F)cc2)c(C#N)s1 [Compound 98, N-(1-(5-(3-((5-cyano-4-(4-fluorophenyl)thiazol-2-yl)(methyl)amino)-2-ethylimidazo[1,2-a]pyridin-6-yl)pyridin-2-yl)piperidin-4-yl)-1-hydroxycyclopropane-1-carboxamide]",≤ 20
16,"CCc1nc2ccc(-c3cnc(C4CCN(C(=O)C5CC5)CC4)nc3)cn2c1N(C)c1nc(-c2ccc(F)cc2)c(C#N)s1 [Compound 99, 2-((6-(2-(1-(cyclopropanecarbonyl)piperidin-4-yl)pyrimidin-5-yl)-2-ethylimidazo[1,2-a]pyridin-3-yl)(methyl)amino)-4-(4-fluorophenyl)thiazole-5-carbonitrile]",20 to 200
17,"CCc1nc2ccc(-c3cnc(C4CCN(C(=O)C5CCC5)CC4)nc3)cn2c1N(C)c1nc(-c2ccc(F)cc2)c(C#N)s1 [Compound 100, 2-((6-(2-(1-(cyclobutanecarbonyl)piperidin-4-yl)pyrimidin-5-yl)-2-ethylimidazo[1,2-a]pyridin-3-yl)(methyl)amino)-4-(4-fluorophenyl)thiazole-5-carbonitrile]",20 to 200
18,"CCc1nc2ccc(-c3cnc(C4CCN(C(=O)N5CCC5)CC4)nc3)cn2c1N(C)c1nc(-c2ccc(F)cc2)c(C#N)s1 [Compound 101, 2-((6-(2-(1-(azetidine-1-carbonyl)piperidin-4-yl)pyrimidin-5-yl)-2-ethylimidazo[1,2-a]pyridin-3-yl)(methyl)amino)-4-(4-fluorophenyl)thiazole-5-carbonitrile]",20 to 200
19,"CCc1nc2ccc(-c3cnc(C4CCN(C(=O)N5CCCC5)CC4)nc3)cn2c1N(C)c1nc(-c2ccc(F)cc2)c(C#N)s1 [Compound 102, 2-((2-ethyl-6-(2-(1-(pyrrolidine-1-carbonyl)piperidin-4-yl)pyrimidin-5-yl)imidazo[1,2-a]pyridin-3-yl)(methyl)amino)-4-(4-fluorophenyl)thiazole-5-carbonitrile]",20 to 200
20,"CCc1nc2ccc(-c3cnc(C4CCN(CC(=O)N5CCC5)CC4)nc3)cn2c1N(C)c1nc(-c2ccc(F)cc2)c(C#N)s1 [Compound 103, 2-((6-(2-(1-(2-(azetidin-1-yl)-2-oxoethyl)piperidin-4-yl)pyrimidin-5-yl)-2-ethylimidazo[1,2-a]pyridin-3-yl)(methyl)amino)-4-(4-fluorophenyl)thiazole-5-carbonitrile]",20 to 200
21,"CCc1nc2ccc(-c3cnc(C4CCN(CC(=O)N5CCCC5)CC4)nc3)cn2c1N(C)c1nc(-c2ccc(F)cc2)c(C#N)s1 [Compound 104, 2-((2-ethyl-6-(2-(1-(2-oxo-2-(pyrrolidin-1-yl)ethyl)piperidin-4-yl)pyrimidin-5-yl)imidazo[1,2-a]pyridin-3-yl)(methyl)amino)-4-(4-fluorophenyl)thiazole-5-carbonitrile]",20 to 200
22,"CCc1nc2ccc(-c3cnc(N4CC(NC5CC5)C4)nc3)cn2c1N(C)c1nc(-c2ccc(F)cc2)c(C#N)s1 [Compound 105, 2-((6-(2-(3-(cyclopropylamino)azetidin-1-yl)pyrimidin-5-yl)-2-ethylimidazo[1,2-a]pyridin-3-yl)(methyl)amino)-4-(4-fluorophenyl)thiazole-5-carbonitrile]",20 to 200
23,"CCc1nc2ccc(-c3cnc(N4CC(NC5CCC5)C4)nc3)cn2c1N(C)c1nc(-c2ccc(F)cc2)c(C#N)s1 [Compound 106, 2-((6-(2-(3-(cyclobutylamino)azetidin-1-yl)pyrimidin-5-yl)-2-ethylimidazo[1,2-a]pyridin-3-yl)(methyl)amino)-4-(4-fluorophenyl)thiazole-5-carbonitrile]",20 to 200
